Source: patent US20250197384A1, “AZOLE COMPOUND AND ANTIFUNGAL AGENT” (NIHON NOHYAKU CO., LTD., priority 2022, published 2025)
In brackets after ≈: the same amount, converted by molar mass.

Experiments:
Assay type in all cases: cell-based
[1] = test system: Trichophyton rubrum NBRC6203; assay: In vitro anti-tinea fungus activity test (T. rubrum); conditions: Table 22, 27° C. for 5 days, alamar Blue, minimum concentration showing 80% or more inhibition; for MIC: Trichophyton rubrum, 120 h, read-out: minimum inhibitory concentration against various fungi (MIC) T. rubrum
Method: (§1) Trichophyton rubrum NBRC6203 and Trichophyton mentagrophytes TIMM2789 were used as the strains. The test fungi were cultured on a Sabouraud dextrose agar slant medium at 27° C. for 10-13 days, and then suspended in sterilized saline. The number of cells in this suspension was counted using a hemocytometer, and the same suspension was adjusted to a cell concentration of 2×10^6 conidia/mL, and this was used as an inoculum. Each compound was dissolved in dimethyl sulfoxide to a predetermined concentration, and diluted 50-fold with 0.165 M MOPS buffered RPMI 1640 liquid medium, and each diluted solution was dispensed into a 96-well microplate by each 100 μL. The inoculum was diluted 50-fold with 0.165 M MOPS buffered RPMI 1640 liquid medium containing 20% alamar Blue™, and the diluted solution was inoculated into the 96-well microplate containing the compound by each 100 μL (final inoculum amount 2×10^4 conidia/mL). After static culture at 27° C. for 3 days (Trichophyton mentagrophytes) or for 5 days (Trichophyton rubrum), the degree of color development of the alamar Blue™ was measured using a microplate reader (O.D. 570-595 nm), and the minimum concentration showing 80% or more inhibition was defined as the minimum inhibitory concentration (MIC).

[2] = test system: Aspergillus fumigatus TIMM0063; assay: In vitro anti-Aspergillus activity test; conditions: Table 22, 35° C. for 48 hr, alamar Blue, minimum concentration showing 80% or more inhibition; for MIC: Aspergillus fumigatus, read-out: minimum inhibitory concentration against various fungi (MIC) A. fumigatus
Method: Aspergillus fumigatus TIMM0063 was used as the strain. The test fungi were cultured on a Potato dextrose agar slant medium at 35° C. for 4 days, and then sterilized saline containing 0.1% (v/v) Tween 80 was added to release the conidia. This conidial suspension was filtered through sterile gauze, and the number of conidia was counted using a hemocytometer. The same solution was adjusted to a conidial concentration of 1×10^6 conidia/mL, and this was used as an inoculum. Each compound was dissolved in dimethyl sulfoxide to a predetermined concentration, and diluted 50-fold with 0.165 M MOPS buffered RPMI 1640 liquid medium, and each diluted solution was dispensed into a 96-well microplate by each 100 μL. The inoculum was diluted 50-fold with 0.165 M MOPS buffered RPMI 1640 liquid medium containing 20% alamar Blue™, and the diluted solution was inoculated into the 96-well microplate containing the compound by each 100 μL (final inoculum amount 1.0×10^4 conidia/mL). After static culture at 35° C. for 48 hr, the degree of color development of the alamar Blue™ was measured using a microplate reader (O.D. 570-595 nm), and the minimum concentration showing 80% or more inhibition was defined as the minimum inhibitory concentration (MIC).

[3] = test system: Candida albicans NBRC1270; assay: In vitro anti-Candida activity test; conditions: Table 22, 35° C. for 24 hr, alamar Blue, minimum concentration showing 80% or more inhibition; for MIC: Candida albicans, read-out: minimum inhibitory concentration against various fungi (MIC) C. albicans
Method: Candida albicans NBRC1270 was used as the strain. The test fungi were cultured on a Sabouraud dextrose agar slant medium at 35° C. for 24 hr, and then suspended in sterilized saline. The number of cells in this suspension was counted using a hemocytometer, and the same suspension was adjusted to a cell concentration of 1.5×10^5 cells/mL, and this was used as an inoculum. Each compound was dissolved in dimethyl sulfoxide to a predetermined concentration, and diluted 50-fold with 0.165 M MOPS buffered RPMI 1640 liquid medium, and each diluted solution was dispensed into a 96-well microplate by each 100 μL. The inoculum was diluted 50-fold with 0.165 M MOPS buffered RPMI 1640 liquid medium containing 20% alamar Blue™, and the diluted solution was inoculated into the 96-well microplate containing the compound by each 100 μL (final inoculum amount 1.5×10^3 cells/mL). After static culture at 35° C. for 24 hr, the degree of color development of the alamar Blue™ was measured using a microplate reader (O.D. 570-595 nm), and the minimum concentration showing 80% or more inhibition was defined as the minimum inhibitory concentration (MIC).

[4] = test system: Trichophyton mentagrophytes TIMM2789; assay: In vitro anti-tinea fungus activity test (T. mentagrophytes); conditions: Table 22, 27° C. for 3 days, alamar Blue, minimum concentration showing 80% or more inhibition; for MIC: Trichophyton mentagrophytes, 72 h, read-out: minimum inhibitory concentration against various fungi (MIC) T. mentagrophytes
Method: as §1

SMILES	MIC [1]	MIC [2]	MIC [3]	MIC [4]	minimum inhibitory concentration against various fungi (MIC) T. rubrum [1]	minimum inhibitory concentration against various fungi (MIC) A. fumigatus [2]	minimum inhibitory concentration against various fungi (MIC) C. albicans [3]	minimum inhibitory concentration against various fungi (MIC) T. mentagrophytes [4]
CCO/N=C/c1cnc(C2CS/C(=C(/C#N)n3ccnc3)S2)c(Cl)c1 (stereo not drawn) [Compound No. 25, (E)-2-(4-{3-chloro-5-[(E)-(ethoxyimino)methyl]pyridin-2-yl}-1,3-dithiolan-2-ylidene)-2-(1H-imidazol-1-yl)acetonitrile]	≤ 1 ng/mL	2.5 ng/mL (≈ 0.00638 µM)	0.6 ng/mL (≈ 0.00153 µM)	≤ 1 ng/mL				
N#C/C(=C1/SCC(c2ncc(/C(N)=N/OCc3ccccc3)cc2Cl)S1)n1ccnc1 (stereo not drawn) [Compound No. 27, (Z)—N′-(benzyloxy)-5-chloro-6-{(E)-2-[cyano(1H-imidazol-1-yl)methylene]-1,3-dithiolan-4-yl}nicotinimidamide]	≤ 1 ng/mL	5 ng/mL (≈ 0.0107 µM)	1.3 ng/mL (≈ 0.00277 µM)	≤ 1 ng/mL				
C=Cc1cnc(C2CS/C(=C(/C#N)n3ccnc3)S2)c(Cl)c1 (stereo not drawn) [compound 3]					≤1 ng/mL	2.5 ng/mL (≈ 0.00721 µM)	100 ng/mL (≈ 0.288 µM)	≤1 ng/mL
N#CCOc1cnc(C2CS/C(=C(/C#N)n3ccnc3)S2)c(Cl)c1 (stereo not drawn) [compound 4]					10 ng/mL (≈ 0.0266 µM)	5 ng/mL (≈ 0.0133 µM)	1000 ng/mL (≈ 2.66 µM)	10 ng/mL (≈ 0.0266 µM)
COC(=O)Nc1cnc(C2CS/C(=C(/C#N)n3cncn3)S2)c(Cl)c1 (stereo not drawn) [compound 7]					≤1 ng/mL	5 ng/mL (≈ 0.0127 µM)	10 ng/mL (≈ 0.0253 µM)	10 ng/mL (≈ 0.0253 µM)

Next, values leading:

MIC [1]	MIC [2]	MIC [3]	MIC [4]	minimum inhibitory concentration against various fungi (MIC) T. rubrum [1]	minimum inhibitory concentration against various fungi (MIC) A. fumigatus [2]	minimum inhibitory concentration against various fungi (MIC) C. albicans [3]	minimum inhibitory concentration against various fungi (MIC) T. mentagrophytes [4]	SMILES
				≤1 ng/mL	5 ng/mL (≈ 0.0122 µM)	10 ng/mL (≈ 0.0245 µM)	10 ng/mL (≈ 0.0245 µM)	CCOC(=O)Nc1cnc(C2CS/C(=C(/C#N)n3cncn3)S2)c(Cl)c1 (stereo not drawn) [compound 11]
				10 ng/mL (≈ 0.0229 µM)	100 ng/mL (≈ 0.229 µM)	10 ng/mL (≈ 0.0229 µM)	100 ng/mL (≈ 0.229 µM)	CC(C)(C)OC(=O)Nc1cnc(C2CS/C(=C(/C#N)n3cncn3)S2)c(Cl)c1 (stereo not drawn) [compound 12]
				≤1 ng/mL	5 ng/mL (≈ 0.0123 µM)	2.5 ng/mL (≈ 0.00613 µM)	10 ng/mL (≈ 0.0245 µM)	CCOC(=O)Nc1cnc(C2CS/C(=C(/C#N)n3ccnc3)S2)c(Cl)c1 (stereo not drawn) [compound 16]
				≤1 ng/mL	5 ng/mL (≈ 0.0132 µM)	10 ng/mL (≈ 0.0264 µM)	10 ng/mL (≈ 0.0264 µM)	CO/N=C/c1cnc(C2CS/C(=C(/C#N)n3cncn3)S2)c(Cl)c1 (stereo not drawn) [compound 19]
				≤1 ng/mL	5 ng/mL (≈ 0.0127 µM)	5 ng/mL (≈ 0.0127 µM)	10 ng/mL (≈ 0.0255 µM)	CCO/N=C/c1cnc(C2CS/C(=C(/C#N)n3cncn3)S2)c(Cl)c1 (stereo not drawn) [compound 21]
				≤1 ng/mL	5 ng/mL (≈ 0.011 µM)	0.6 ng/mL (≈ 0.00132 µM)	10 ng/mL (≈ 0.022 µM)	N#C/C(=C1/SCC(c2ncc(/C=N/OCc3ccccc3)cc2Cl)S1)n1cncn1 (stereo not drawn) [compound 23]
				≤1 ng/mL	2.5 ng/mL (≈ 0.00662 µM)	2.5 ng/mL (≈ 0.00662 µM)	≤1 ng/mL	CO/N=C/c1cnc(C2CS/C(=C(/C#N)n3ccnc3)S2)c(Cl)c1 (stereo not drawn) [compound 24]
